These results are taken from ChEMBL document CHEMBL1143870, “A new insight into solid-state conformation of macrolide antibiotics” (Bioorg Med Chem, 2008).

Series [1] is described as follows: Cmax in human at 500 mg, po administered as single dose. The settings on record: in vivo. It is filed as ADME, organism-based. The arrangement: dose 500 mg, route oral.
The test system of series [2] is Homo sapiens. The series is described as follows: AUC in human at 500 mg, po administered as single dose. Format: ADME, organism-based, Plasma. The settings on record: in vivo.
A short description of series [3]: Oral bioavailability in human at 500 mg administered as single dose. Format: ADME, organism-based. The settings on record: in vivo.
Series [4] can be described thus: Elimination half life in human at 500 mg, po administered as single dose. It is filed as ADME, organism-based. The settings on record: in vivo.
A short description of series [5]: Tmax in human at 500 mg, po administered as single dose. Format: ADME, organism-based. The settings on record: in vivo.
The nature of series [6]: Lipophilicity, log D at pH 8.0. It is filed as physicochemical. The settings on record: buffer.
A short description of series [7]: Cmax in human at 150 mg, po administered as single dose. It is filed as ADME, organism-based. The arrangement: dose 150 mg, route oral. The settings on record: in vivo.
The nature of series [8]: Tmax in human at 150 mg, po administered as single dose. Format: ADME, organism-based. The settings on record: in vivo.
Series [9] can be described thus: Oral bioavailability in human at 150 mg administered as single dose. Format: ADME, organism-based. The settings on record: in vivo.
Series [10] deals with Homo sapiens. The series is described as follows: AUC in human at 150 mg, po administered as single dose. Format: ADME, organism-based, Plasma. The settings on record: in vivo.
A short description of series [11]: Elimination half life in human at 150 mg, po administered as single dose. Format: ADME, organism-based. The settings on record: in vivo.

For the compound `CC[C@H]1OC(=O)[C@H](C)[C@@H](O[C@H]2C[C@@](C)(OC)[C@@H](O)[C@H](C)O2)[C@H](C)[C@@H](O[C@@H]2O[C@H](C)C[C@H](N(C)C)[C@H]2O)[C@](C)(OC)C[C@@H](C)C(=O)[C@H](C)[C@@H](O)[C@]1(C)O` [CLARITHROMYCIN], the peak concentration (Cmax) in series [1] was 2410 ng/mL. The compound further came in with an AUC in the series with Homo sapiens [2] of 18900 ng·h/mL. The compound further registered a bioavailability in [3] of 55%. Besides, in [4], the half-life was 4.9 h. Moreover, the time of peak concentration (Tmax) in series [5] turned out to be 2 h. The same compound had a logD in series [6] of 3.9.
In the case of `CC[C@H]1OC(=O)[C@H](C)[C@@H](O[C@H]2C[C@](C)(OC)[C@H](O)[C@@H](C)O2)[C@H](C)[C@@H](O[C@@H]2O[C@@H](C)C[C@@H](N(C)C)[C@@H]2O)[C@](C)(O)C[C@@H](C)C(=O)[C@H](C)[C@@H](O)[C@]1(C)O` [ERYTHROMYCIN A DIHYDRATE], in series [1], the concentration peaked (Cmax) at 1900 ng/mL. The area under the curve (AUC) in the series with Homo sapiens [2] stood at 5800 ng·h/mL. The same compound showed a bioavailability in series [3] of 18%. Besides, the half-life in series [4] was 1.5 h. Further, in series [5], the time of peak concentration (Tmax) stood at 1 h.
`CC[C@H]1OC(=O)[C@H](C)[C@@H](O[C@H]2C[C@@](C)(OC)[C@@H](O)[C@H](C)O2)[C@H](C)[C@@H](O[C@@H]2O[C@H](C)C[C@H](N(C)C)[C@H]2O)[C@](C)(O)C[C@@H](C)/C(=N\OCOCCOC)[C@H](C)[C@@H](O)[C@]1(C)O` [ROXITHROMYCIN] showed a peak concentration (Cmax) in series [7] of 7900 ng/mL. In addition, the Tmax in series [8] is 2.2 h. The bioavailability in series [9] was found to be 72%. Moreover, in the series on Homo sapiens [10], the AUC was found to be 81000 ng·h/mL. Moreover, the logD in [6] is 2.5. The same compound showed a half-life in series [11] of 10.5 h.

For orientation: Cmax means the maximum level reached in the sampled fluid or tissue. A word on the AUC: it is concentration integrated over time. As usually defined, the bioavailability is dose-corrected exposure relative to a reference, in per cent. Lower therefore signals poor availability. The term half-life denotes the time needed for the level to fall by half in the phase considered. What is called Tmax is the time at which the peak concentration occurs. As a reminder, the logD is the decadic logarithm of the distribution of all forms, ionised or not, between an organic phase and buffer at a given pH.
